Results on two compounds are retold here after patent US20210115366A1, “METHODS OF MAKING IMPROVED HUMAN INTESTINAL ORGANOID COMPOSITIONS VIA APPLICATION OF STRAIN AND HUMAN INTESTINAL ORGANOID COMPOSITIONS THEREOF” (Children's Hospital Medical Center, priority 2017, published 2021).

Entries after “also recorded” stand apart in the source; their conditions may differ.

The subject of one test is adult human jejunum. Briefly: Ex vivo muscle strength (organ bath, isometric force) of adult jejunum muscle strips. As to the method:
(§1) After an equilibration period, muscle force contraction was assayed using a logarithmic series of bethanechol doses ranging in concentration from 1 nM to 10 mM. Representative tensile response recordings are plotted for tHIO, tHIO+S and adult jejunum (FIG. 7B). […] To better visualize the differences between tHIO and tHIO+S the data was also plotted sans adult jejunum (FIG. 7C, right panel).
(§2) tHIO and tHIO+S grafts were harvested and placed in ice-cold Hank's Balanced Salt Solution (HBSS). Human surgical samples were maintained overnight at 4° C. in HBSS prior to assaying in order to minimize the effects of anesthetics. Muscle strips (4-6 mm in length and 1-2 mm in width) were dissected from the samples. Strips were then suspended vertically in an organ bath chamber (Radnoti) filled with freshly prepared Krebs-Ringer solution (Sigma; supplemented with 2.5 mM CaCl and 15 mM NaHCO3; pH 7.4), warmed to 37° C. and gassed with 95% O2+5% CO2. Segments were allowed to equilibrate for an hour at an initial tension of 0.5 g. The contractile response of the muscle was continuously recorded, using 4-chamber tissue-organ bath chambers with isometric force transducers (0-25 g; AD Instruments) coupled to a multi-channel bridge amplifiers and data recorder (AD Instruments; PowerLab 4/35) linked to a computer equipped with LabChart Pro software (AD Instruments). […]

A further test has as its system tHIO+S. Briefly: Ex vivo muscle strength (organ bath, isometric force) of tHIO+S muscle strips. Further details: species or system human. As to the method: as §1, §2
For the next test, the system named is tHIO. The test can be described thus: Ex vivo muscle strength (organ bath, isometric force) of tHIO muscle strips. Further details: species or system human. As to the method:
as §1, §2

In a further test the test system is infant jejunum. Briefly: Ex vivo muscle strength (organ bath, isometric force) of infant jejunum muscle strips. Conditions: 10 μM after bethanechol dose series. Further details: species or system human. As to the method: as §1, §2
[1] abbreviates: 10 μM after bethanechol dose series.

As for `CC(C[N+](C)(C)C)OC(N)=O` (stereo not shown) [bethanechol, Carbamyl-p-methylcholine chloride], the EC50 came out at 3.28 µM in the test with adult human jejunum (adult human jejunum muscle strips, logarithmic doses 1 nM to 10 mM, read-out: effective concentration to achieve half of the maximal response (EC50), muscle contraction) and 14.7 µM in the test on tHIO+S (Homo sapiens, logarithmic doses 1 nM to 10 mM, read-out: effective concentration to achieve half of the maximal response (EC50), muscle contraction). The “tensile response to bethanechol” value with tHIO (1 nM to 10 mM, EC50 with 95% confidence could not be determined) is reported as “low overall tensile response”.

On to `CN1[C@@H]2C[C@@H](OC(=O)[C@H](CO)c3ccccc3)C[C@H]1[C@@H]1O[C@@H]12` [scopolamine], for which the “tension before and after administration of scopolamine (relaxation)” value in the test on adult human jejunum (adult jejunum muscle strips, 10 μM after bethanechol dose series) is listed as “Relaxation was successfully induced”; in the test with infant jejunum, “Relaxation was successfully induced”; in the test on tHIO+S (setting [1]) it was “Relaxation was successfully induced; also recorded: relaxation is observed”; in the test with tHIO (setting [1]), “Relaxation was successfully induced; also recorded: relaxation is observed”.
